Measured values reported in patent publication US7897765B2, “Therapeutic compounds and uses thereof” (Elixir Pharmaceuticals, Inc., priority 2003, dated 2011).

Target: GHS-R (Homo sapiens, UniProt Q92847)
Assay: cell based assay of GHS-R antagonist/agonist activity
Design: key: A refers to a compound having antagonist activity with Ki<100 nM in a cell based assay; B refers to a compound having agonist activity with EC50<100 nM in a cell based assay; C refers to a compound having antagonist activity of Ki>100 nM and <1500 nM in a cell based assay; D refers to a compound having antagonist activity with Ki, <100 nM and agonist activity with EC50<100 nM in a cell-based assay; E refers to other exemplary compounds
Conditions: GHS-R antagonist Ki and/or agonist EC50 class
Procedure: Cell-Based Activity Assays. For example, the ability of the compound to modulate accumulation of a second messenger signaling component downstream of GHS-R can be evaluated. For example, inositol phosphates (IP), as a result of Gq signaling in a mammalian cell, e.g., a Cos-7 cells. Other tissue culture cells, Xenopus oocytes, and primary cells can also be used.
Phosphatidylinositol turnover assay. One day after transfection COS-7 cells are incubated for 24 hours with 5 μCi of [^3H]-myo-inositol in 1 ml medium supplemented with 10% fetal calf serum, 2 mM glutamine and 0.01 mg/ml gentamicin per well. Cells are then washed twice in buffer, 20 mM HEPES, pH 7.4, supplemented with 140 mM NaCl, 5 mM KCl, 1 mM MgSO4, 1 mM CaCl2, mM glucose, 0.05% (w/v) bovine serum; and incubated in 0.5 ml buffer supplemented with 10 mM LiCl at 37° C. for 30 min. For some assays, it is also useful to incubate the cells with adenosine deaminase ADA (200 U/mg, Boehringer Mannheim, Germany) for 30 min in a concentration of 1 U/ml.
After incubation with the compound of interest for 45 min at 37° C., cells are extracted with 10% ice-cold perchloric acid and placed on ice for 30 min. The resulting supernatants are neutralized with KOH in HEPES buffer, and [^3H]-inositol phosphate is purified on Bio-Rad AG 1-X8 anion exchange resin as described. Assays can be run in duplicate, triplicate, etc.
Other second messenger assays. Another second messenger that can be evaluated is Ca^2+. Ca^2+ mobilization can be evaluated using a calcium sensitive detector, such as aequorin protein or a dye, e.g., FURA-2. In an exemplary assay, calcium mobilization is evaluated in a recombinant cell that expresses GHS-R and aequorin.
Gene expression assay. HEK293 cells (30 000 cells/well) seeded in 96-well plates are transiently transfected with a mixture of pFA2-CREB and pFR-Luc reporter plasmid (PathDetect™ CREB trans-Reporting System, Stratagene) and nucleic acid encoding GHS. One day after transfection, cells are treated with the compound of interest in an assay volume of 100 μl medium for 5 hrs. After treatment, cells are cultured in low serum (2.5%). After the incubation period, the assay is ended by washing the cells twice with PBS and adding 100 μl luciferase assay reagent (LucLite™, Packard Bioscience). Luminescence is measured (e.g., as relative light units (RLU)) using in a luminometer such as the TopCounter™ (Packard Bioscience) for 5 sec.
IC50 and EC50 values can be determined by nonlinear regression, e.g., using the Prism 3.0 software (GraphPad Software, San Diego).

GHS-R, sequence (Q92847 whole entry, species assumed): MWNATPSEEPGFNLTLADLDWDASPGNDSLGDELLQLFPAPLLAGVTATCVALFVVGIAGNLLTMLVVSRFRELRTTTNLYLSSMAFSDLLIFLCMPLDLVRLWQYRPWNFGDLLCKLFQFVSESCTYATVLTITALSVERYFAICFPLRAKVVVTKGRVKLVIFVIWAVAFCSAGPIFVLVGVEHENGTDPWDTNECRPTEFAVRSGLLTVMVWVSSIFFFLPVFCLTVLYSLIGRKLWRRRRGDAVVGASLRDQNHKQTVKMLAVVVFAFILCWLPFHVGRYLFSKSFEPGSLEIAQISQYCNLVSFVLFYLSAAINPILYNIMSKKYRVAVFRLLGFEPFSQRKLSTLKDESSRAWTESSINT

Compound	Activity
CC(C)(C)OC(=O)N[C@H](COCc1ccccc1)C(=O)N1CCC2(CC1)CNc1ccccc12 [Compound 56]	E
CCN(CCS(=O)(=O)N[C@H](COCc1ccccc1)C(=O)N1CCC2(CC1)CN(S(C)(=O)=O)c1ccccc12)C(C)C [Compound 101]	E
CN(C)CC(=O)NC(C)(C)C(=O)N[C@H](COCc1ccccc1)C(=O)N1CCC2(CC1)CN(S(C)(=O)=O)c1ccccc12 [Compound 127]	B (B refers to a compound having agonist activity with EC50<100 nM in a cell based assay)
C[C@@H](OCc1ccccc1)C(NC(=O)C1CCN(C)CC1)C(=O)N1CCC2(CC1)CN(S(C)(=O)=O)c1ccccc12 (stereo partly shown) [Compound 137]	E
CNC(C)(C)C(=O)N[C@H](COCc1ccccc1)C(=O)N1CCC2(CC1)CN(S(C)(=O)=O)c1ccccc12 [Compound 132]	B (B refers to a compound having agonist activity with EC50<100 nM in a cell based assay)
CN[C@@H](C)C(=O)N[C@H](COCc1ccccc1)C(=O)N1CCC2(CC1)CN(S(C)(=O)=O)c1ccccc12 [Compound 129]	B (B refers to a compound having agonist activity with EC50<100 nM in a cell based assay)
COc1cccc(NC(=O)N2CC3(CCN(C(=O)[C@@H](COCc4ccccc4)NC(=O)OC(C)(C)C)CC3)c3ccccc32)c1 [Compound 65]	E
CC(C)(C)OC(=O)NC(C)(C)C(=O)N[C@H](COCc1ccccc1)C(=O)N1CCC2(CC1)CN(S(C)(=O)=O)c1ccccc12 [Compound 50]	E
COc1cccc(C(=O)N2CC3(CCN(C(=O)[C@@H](COCc4ccccc4)NC(=O)OC(C)(C)C)CC3)c3ccccc32)c1 [Compound 58]	E
CC(C)(C)C(=O)N[C@H](COCc1ccccc1)C(=O)N1CCC2(CC1)CN(S(C)(=O)=O)c1ccccc12 [Compound 44]	C (C refers to a compound having antagonist activity of Ki>100 nM and <1500 nM in a cell based assay)
CN(C)Cc1ccc(C(=O)N[C@H](COCc2ccccc2)C(=O)N2CCC3(CC2)CN(S(C)(=O)=O)c2ccccc23)cc1 [Compound 40]	C (C refers to a compound having antagonist activity of Ki>100 nM and <1500 nM in a cell based assay)
CC(C)N1CCC(C(=O)N[C@H](COCc2ccccc2)C(=O)N2CCC3(CC2)CN(S(C)(=O)=O)c2ccccc23)CC1 [Compound 19]	C (C refers to a compound having antagonist activity of Ki>100 nM and <1500 nM in a cell based assay)
CCN1CCC[C@@H]1CNC(=O)N[C@H](COCc1ccccc1)C(=O)N1CCC2(CC1)CN(S(C)(=O)=O)c1ccccc12 [Compound 96]	E
CC(C)NCCS(=O)(=O)N[C@H](COCc1ccccc1)C(=O)N1CCC2(CC1)CN(S(C)(=O)=O)c1ccccc12 [Compound 146]	C (C refers to a compound having antagonist activity of Ki>100 nM and <1500 nM in a cell based assay)
CN1CC2(CCN(C(=O)[C@@H](COCc3ccccc3)NC(=O)OC(C)(C)C)CC2)c2ccccc21 [Compound 48]	C (C refers to a compound having antagonist activity of Ki>100 nM and <1500 nM in a cell based assay)
CN1CCC(C(=O)N[C@H](Cc2c[nH]c3ccccc23)C(=O)N2CCC3(CC2)CN(S(C)(=O)=O)c2ccccc23)CC1 [Compound 135]	E
COCC(=O)N1CC2(CCN(C(=O)[C@@H](COCc3ccccc3)NC(=O)CN(C)C)CC2)c2ccccc21 [Compound 73]	E
CS(=O)(=O)N1CC2(CCN(C(=O)[C@@H](COCc3ccccc3)NC(=O)C3=CCNCC3)CC2)c2ccccc21 [Compound 16]	C (C refers to a compound having antagonist activity of Ki>100 nM and <1500 nM in a cell based assay)
CN[C@H](C)C(=O)N[C@H](COCc1ccccc1)C(=O)N1CCC2(CC1)CN(S(C)(=O)=O)c1ccccc12 [Compound 130]	B (B refers to a compound having agonist activity with EC50<100 nM in a cell based assay)
COCC(=O)N1CC2(CCN(C(=O)[C@@H](COCc3ccccc3)NC(=O)OC(C)(C)C)CC2)c2ccccc21 [Compound 57]	E
CCN(CC)CCS(=O)(=O)N[C@H](COCc1ccccc1)C(=O)N1CCC2(CC1)CN(S(C)(=O)=O)c1ccccc12 [Compound 8]	D (D refers to a compound having antagonist activity with Ki, <100 nM and agonist activity with EC50<100 nM in a cell-based assay)
CN1CCC(C(=O)N[C@H](CCc2ccccc2)C(=O)N2CCC3(CC2)CN(S(C)(=O)=O)c2ccccc23)CC1 [Compound 136]	E
CCN1CCC(C(=O)N[C@H](COCc2ccccc2)C(=O)N2CCC3(CC2)CN(S(C)(=O)=O)c2ccccc23)CC1 [Compound 27]	C (C refers to a compound having antagonist activity of Ki>100 nM and <1500 nM in a cell based assay)
CN1CCC(NC(=O)N2C[C@H](OCc3ccccc3)CC2C(=O)N2CCC3(CC2)CN(S(C)(=O)=O)c2ccccc23)CC1 (stereo partly shown) [Compound 139]	E
CC(C)(C)OC(=O)N[C@H](COCc1ccccc1)C(=O)N1CCC2(C=Cc3ccccc32)CC1 [Compound 30]	C (C refers to a compound having antagonist activity of Ki>100 nM and <1500 nM in a cell based assay)
CN1CCCC[C@@H]1C(=O)N[C@H](COCc1ccccc1)C(=O)N1CCC2(CC1)CN(S(C)(=O)=O)c1ccccc12.Cl [Compound 133]	B (B refers to a compound having agonist activity with EC50<100 nM in a cell based assay)

Other lines, results leading:

Activity	Compound
E	C[C@@H](C(=O)N[C@H](COCc1ccccc1)C(=O)N1CCC2(CC1)CN(S(C)(=O)=O)c1ccccc12)N(C)C [Compound 81]
E	CS(=O)(=O)N1CC2(CCN(C(=O)[C@@H](COCc3ccccc3)NC(=O)c3cccc(CN)c3)CC2)c2ccccc21 [Compound 122]
E	CN1CCC(C(=O)N[C@H](COCc2ccccc2)C(=O)N2CCC3(CC2)CN(S(C)(=O)=O)c2ccccc23)C1 (stereo partly shown) [Compound 115]
E	CS(=O)(=O)N1CC2(CCN(C(=O)[C@@H](COCc3ccccc3)NC(=O)c3ccc(CN)cc3)CC2)c2ccccc21 [Compound 121]
E	CS(=O)(=O)N1CC2(CCN(C(=O)[C@@H](COCc3ccccc3)NC(=O)C3(N)CCCCC3)CC2)c2ccccc21 [Compound 117]
E	CS(=O)(=O)N1CC2(CCN(C(=O)[C@@H](COCc3ccccc3)NC(=S)NCc3ccco3)CC2)c2ccccc21 [Compound 87]
E	CN(C)CCC(=O)N[C@H](COCc1ccccc1)C(=O)N1CCC2(CC1)CN(S(C)(=O)=O)c1ccccc12 [Compound 89]
E	CS(=O)(=O)N1CC2(CCN(C(=O)[C@@H](COCc3ccccc3)NC(=O)NCCCO)CC2)c2ccccc21 [Compound 95]
E	CCN1CC=C(C(=O)N[C@H](COCc2ccccc2)C(=O)N2CCC3(CC2)CN(S(C)(=O)=O)c2ccccc23)CC1 [Compound 100]
E	CN(C)CC(=O)N[C@@H](Cc1ccccc1)C(=O)N1CCC2(CC1)CN(S(C)(=O)=O)c1ccccc12 [Compound 124]
E	CC(C)CCN1CC=C(C(=O)N[C@H](COCc2ccccc2)C(=O)N2CCC3(CC2)CN(S(C)(=O)=O)c2ccccc23)CC1 [Compound 102]
E	CN1CCN(C(=O)N[C@H](COCc2ccccc2)C(=O)N2CCC3(CC2)CN(S(C)(=O)=O)c2ccccc23)CC1 [Compound 93]
E	CS(=O)(=O)N1CC2(CCN(C(=O)[C@@H](COCc3ccccc3)NC(=O)c3ccccn3)CC2)c2ccccc21 [Compound 53]
E	CCN(CC)CCC(=O)N[C@H](COCc1ccccc1)C(=O)N1CCC2(CC1)CN(S(C)(=O)=O)c1ccccc12 [Compound 111]
E	CS(=O)(=O)N1CC2(CCN(C(=O)[C@@H](COCc3ccccc3)NC(=O)C3=CCCNC3)CC2)c2ccccc21 [Compound 107]
E	CN(C)CCNC(=O)N[C@H](COCc1ccccc1)C(=O)N1CCC2(CC1)CN(S(C)(=O)=O)c1ccccc12 [Compound 94]
E	CN(C)CC(=O)N[C@H](Cc1ccccc1)C(=O)N1CCC2(CC1)CN(S(C)(=O)=O)c1ccccc12 [Compound 123]
